The values below come from US9714243B2, “4-pyridinonetriazine derivatives as HIV integrase inhibitors” (Merck Sharp & Dohme Corp., priority 2012, dated 2017).

Structures are written as SMILES. Where two headings read alike, the source gives them in different places.

This assay relates to HIV-1 (NL4-3 strain). Put plainly: Assay for inhibition of HIV replication (ViKinG; infected MT4-GFP cells). Format: cell-based. As for the experimental part: Assay for inhibition of HIV replication
MT4-GFP cells (250,000 cells/ml) were bulk-infected with HIV-1 (NL4-3 strain) at low multiplicity of infection (MOI) in RPMI+10% FBS for 24 hours. […] Test compounds were serial-diluted in DMSO on ECHO. The infected MT4-GFP cells were added to a 384-well poly-D-lysine coated black plate with clear bottom in which the diluted test compounds were placed. The cells were seeded at 8,000 cells per well and the final DMSO concentration was 0.4%. The infected cells (Green GFP cells) were quantified at both 24 and 48 hours post incubation using Acumen eX3. Viral reproductive ratio (R0) was determined using the number of infected cells at 48 hours divided by the number of infected cells at 24 hours. Percent viral growth inhibition was calculated by [1−(R−Rtripledrug)/(RDMSO−Rtripledrug)]*100. Compound potency IP or IC50 was determined by a 4-parameter dose response curve analysis.

Setting [1] is: Human immunodeficiency virus 1, NL43, MT4-GFP cells infected with HIV-1 NL4-3, 0% normal human serum (NHS), read-out: ViKinG IP (nM) with 0% NHS.
Where [2] appears, read: Human immunodeficiency virus 1, NL43, MT4-GFP cells infected with HIV-1 NL4-3, 10% normal human serum (NHS), read-out: ViKinG IP (nM) with 10% NHS.
Setting [3] is: Human immunodeficiency virus 1, NL43, MT4-GFP cells infected with HIV-1 NL4-3, 100% normal human serum (NHS), read-out: ViKinG IP (nM) with 100% NHS.
Where [4] appears, read: MT4-GFP cells infected with HIV-1 NL4-3, 0% normal human serum (NHS), read-out: ViKinG IP (nM) with 0% NHS.
[5] abbreviates: MT4-GFP cells infected with HIV-1 NL4-3, 100% normal human serum (NHS), read-out: ViKinG IP (nM) with 100% NHS.
The mark [6] stands for this setting: MT4-GFP cells infected with HIV-1 NL4-3, 10% normal human serum (NHS), read-out: ViKinG IP (nM) with 10% NHS.

Take `COC(=O)[C@@]12C[C@@H]1CCC21N(C)C(=O)c2c(O)c(=O)c(-c3nnc(Cc4ccc(F)cc4F)s3)cn2N1C` (mixture of isomers) [Compound 199]: the IC50 under setting [1] came out at 5.42 nM, the IC50 under setting [2] is 13.9 nM and the IC50 under setting [3] came to 202 nM. For the compound `CN1C(=O)c2c(O)c(=O)c(-c3nnc(Cc4ccc(F)cc4F)s3)cn2N(C)C12CC[C@@H]1C[C@@]12CO` (mixture of isomers) [Compound 200], the IC50 is, setting by setting: under setting [4], 2.04 nM; under setting [5], 66.7 nM.

With `CN1n2cc(-c3nnc(Cc4ccc(F)cc4F)s3)c(=O)c(O)c2C(=O)NC12CC[C@H]1C[C@H]12` (mixture of isomers) [Compound 201], the IC50 is, setting by setting: under setting [1], 3.82 nM; under setting [3], 575 nM. `COCCN1C(=O)c2c(O)c(=O)c(-c3nnc(Cc4ccc(F)cc4F)s3)cn2N(C)C12CC[C@H]1C[C@H]12` (mixture of isomers) [Compound 202]: the IC50 was 8.36 nM under setting [1] and 1180 nM under setting [2]. With `COC(=O)[C@@]12C[C@@H]1CCC21NC(=O)c2c(O)c(=O)c(-c3nnc(Cc4ccc(F)cc4F)s3)cn2N1C` (mixture of isomers) [Compound 204], the IC50 under setting [1] amounted to 2.81 nM, the IC50 under setting [2] stood at 9.04 nM and the IC50 under setting [3] was 146 nM. Turning to `CCN1C(=O)c2c(O)c(=O)c(-c3nnc(Cc4ccc(F)cc4F)s3)cn2N(C)C1C(C)(C)C` (racemic) [Compound 16], the IC50 reads like this: under setting [2], 57 nM; under setting [3], 1030 nM. The like results for `CCN1C(=O)c2c(O)c(=O)c(-c3nnc(Cc4ccc(F)cc4F)s3)cn2N(C)C1C1(C)CC1` (racemic) [Compound 17] were, in that order, 138 nM and 4070 nM. With `CCN1C(=O)c2c(O)c(=O)c(-c3nnc(Cc4ccc(F)cc4F)s3)cn2N(C)C1c1cccc(OC)n1` (racemic) [Compound 18], the IC50 reads like this: under setting [2], 38.7 nM; under setting [3], 1190 nM. Turning to `CCN1C(=O)c2c(O)c(=O)c(-c3nnc(Cc4ccc(F)cc4F)s3)cn2N(C)C1CC(C)=O` (racemic) [Compound 40], the IC50 is, setting by setting: under setting [1], 2.53 nM; under setting [2], 374 nM. For the compound `CCN1C(=O)c2c(O)c(=O)c(-c3nnc(Cc4ccc(F)cc4F)s3)cn2N(C)C12CCCc1sccc12` (racemic) [Compound 42], the IC50 came out at 92.5 nM under setting [1] and 321 nM under setting [2]. The like results for `CCN1C(=O)c2c(O)c(=O)c(-c3nnc(Cc4ccc(F)cc4F)s3)cn2N(C)C12CCCC(=O)C2` (racemic) [Compound 43] were, in that order, 40.7 nM and 275 nM.

On to `CCN1C(=O)c2c(O)c(=O)c(-c3nnc(Cc4ccc(F)cc4F)s3)cn2N(C)C12CCCCC(=O)C2` (racemic) [Compound 44], for which the IC50 runs as follows: under setting [1], 4.36 nM; under setting [3], 240 nM. The like results for `CCN1C(=O)c2c(O)c(=O)c(-c3nnc(Cc4ccc(F)cc4F)s3)cn2N(C)C1c1ccc(F)c(OC)c1` (racemic) [Compound 48] were, in that order, 19.6 nM and 416 nM. On to `CC1=CCC2(CC1)N(C)C(=O)c1c(O)c(=O)c(-c3nnc(Cc4ccc(F)cc4F)s3)cn1N2C` (racemic) [Compound 71], for which the IC50 was 16.1 nM under setting [1] and 49.5 nM under setting [2]. For `CN1C(=O)c2c(O)c(=O)c(-c3nnc(Cc4ccc(F)cc4F)s3)cn2N(C)C12CCCc1occc12` (racemic) [Compound 78], the IC50 under setting [1] was 10.7 nM and the IC50 under setting [2] is 93 nM. For `CN1C2CCCN2C(=O)c2c(O)c(=O)c(-c3nnc(Cc4ccc(F)cc4F)s3)cn21` (racemic) [Compound 155], the IC50 stood at 48.7 nM under setting [2] and 304 nM under setting [3]. Take `CN1C2CCCCCN2C(=O)c2c(O)c(=O)c(-c3nnc(Cc4ccc(F)cc4F)s3)cn21` (racemic) [Compound 159]: the IC50 under setting [2] came out at 121 nM. On to `CN1C2COCCN2C(=O)c2c(O)c(=O)c(-c3nnc(Cc4ccc(F)cc4F)s3)cn21` (racemic) [Compound 160], for which the IC50 was found to be 22.6 nM under setting [2] and 298 nM under setting [3].

Take `CN1n2cc(-c3nnc(Cc4ccc(F)cc4F)s3)c(=O)c(O)c2C(=O)N2CCCC21CO` (racemic) [Compound 163]: the IC50 reads like this: under setting [1], 8.22 nM; under setting [3], 499 nM. As for `CCN1C(=O)c2c(O)c(=O)c(-c3nnc(Cc4ccc(F)cc4)s3)cn2N(C)C1C1CC1` (racemic) [Compound 217], the IC50 stood at 66 nM under setting [2] and 1020 nM under setting [3]. Turning to `CCN1C(=O)c2c(O)c(=O)c(-c3nnc(Cc4ccc(F)cc4)s3)cn2N(C)C1C1CCOCC1` (racemic) [Compound 219], under setting [2], the IC50 is 26.9 nM. Regarding `CCN1C(=O)c2c(O)c(=O)c(-c3nnc(Cc4ccc(F)cc4)s3)cn2N(C)C1(C)COC` (racemic) [Compound 223], the IC50 under setting [3] was 369 nM. Consider `CCN1C(=O)c2c(O)c(=O)c(-c3nnc(Cc4ccc(F)cc4)s3)cn2N(C)C1(C)C` [Compound 5], for which the IC50 by setting is: under setting [2], 31 nM; under setting [3], 936 nM.

`CCN1C(=O)c2c(O)c(=O)c(-c3nnc(Cc4ccc(F)cc4)s3)cn2N(C)C1c1ccn[nH]1` (stereo not drawn) [Compound 6]: the IC50 stood at 30.8 nM under setting [2] and 357 nM under setting [3]. In the case of `CCO[C@H]1CC[C@@]2(CC1)N(CC)C(=O)c1c(O)c(=O)c(-c3nnc(Cc4ccc(F)cc4F)s3)cn1N2C` [Compound 9], the IC50 under setting [1] was 5.06 nM and the IC50 under setting [3] was determined as 141 nM.

For `CCN1C(=O)c2c(O)c(=O)c(-c3nnc(Cc4ccc(F)cc4)s3)cn2N(C)C12CC(O)C2` (stereo not drawn) [Compound 11], the IC50 is, setting by setting: under setting [2], 231 nM; under setting [3], 4200 nM. In the case of `CN1C(=O)c2c(O)c(=O)c(-c3nnc(Cc4ccc(F)cc4)s3)cn2N(C)C12CCC(O)CC2` (stereo not drawn) [Compound 13], the IC50 was 23.8 nM under setting [4], 86.9 nM under setting [6] and 862 nM under setting [5]. For the compound `CN1C(=O)c2c(O)c(=O)c(-c3nnc(Cc4ccc(F)cc4)s3)cn2N(C)C12CCC(O)CC2` (stereo not drawn) [Compound 14], the IC50 by setting is: under setting [4], 5.37 nM; under setting [6], 18.8 nM; under setting [5], 198 nM. For `CCN1C(=O)c2c(O)c(=O)c(-c3nnc(Cc4ccc(F)cc4F)s3)cn2N(C)C1(C)C` [Compound 15], the IC50 by setting is: under setting [1], 3.49 nM; under setting [2], 57.9 nM; under setting [3], 971 nM. As for `CCN1C(=O)c2c(O)c(=O)c(-c3nnc(Cc4ccc(F)cc4F)s3)cn2N(C)C12CCC(C(=O)OC)C2` (stereo not drawn) [Compound 19], the IC50 by setting is: under setting [2], 22.8 nM; under setting [3], 314 nM. The corresponding values for `CCN1C(=O)c2c(O)c(=O)c(-c3nnc(Cc4ccc(F)cc4F)s3)cn2N(C)C12CCC(CC(=O)OC)C2` (stereo not drawn) [Compound 20] are 28.7 nM and 218 nM. As for `CCN1C(=O)c2c(O)c(=O)c(-c3nnc(Cc4ccc(F)cc4F)s3)cn2N(C)C12CCC(CC(=O)OC)CC2` (stereo not drawn) [Compound 21], under setting [2], the IC50 is 31.8 nM. Regarding `CCN1C(=O)c2c(O)c(=O)c(-c3nnc(Cc4ccc(F)cc4F)s3)cn2N(C)C12CCC1(CCC(=O)N1)CC2` (stereo not drawn) [Compound 22], the IC50 under setting [2] was determined as 292 nM.

With `CCN1C(=O)c2c(O)c(=O)c(-c3nnc(Cc4ccc(F)cc4F)s3)cn2N(C)C12CCC1(CCC(=O)N1)CC2` (stereo not drawn) [Compound 23], the IC50 under setting [6] came out at 466 nM. As to `CCN1C(=O)c2c(O)c(=O)c(-c3nnc(Cc4ccc(F)cc4F)s3)cn2N(C)C12CCC(NS(C)(=O)=O)CC2` (stereo not drawn) [Compound 24], the IC50 is, setting by setting: under setting [2], 185 nM; under setting [3], 1040 nM.
